Here are results for one compound from US4849335A, “Method for detecting the mutagenicity of substances susceptible of inducing the deterioration of cellular DNA, utilizing the production of an SOS response” (priority 1982, dated 1989).

What all share (format): cell-based, E. coli strain PQ37
One data set relates to β-galactosidase. The data set is described as follows: β-galactosidase activity in E. coli PQ37 culture. As to conditions: FIG. 1 curve a; beyond a certain concentration of genotoxic substance; 2 hours. From the text: The micro-organism employed in the tests whose description follows is a transformed E. coli strain, named PQ37, deposited in the National Collection of Culture Micro-Organisms (C.N.C.M.) of the Pasteur Institute of Paris, under no. I-205 on the date of Sept. 24, 1982. The genetic characteristics of this micro-organism are as follows: F^- thr leu his-4 pyrD thi galE galK or T lacΔUI69 srl 300::Tn10 rpoB rpsL uvrA rfa trp::Muc^+ sfiA::Mud(AP, lac)c-Ts. It is constitutive for the synthesis of the alkaline phosphatase (Pho^c).
This strain has been obtained by genetic recombinations suitable to confer on it the above-indicated genotype, from the strain containing the recombinant sfiA::lacZ deposited at the C.N.C.M., under no. I-152 Apr. 13, 1981.
A culture of the abovesaid micro-organism previously developed up to the exponential phase in LB culture medium (Bacto tryptone 10 g, Bacto yeast extract 5 g, NaC1 10 g, water Q.S.P. 1 1), also containing ampicillin, is diluted ten times either in fresh medium, or in the activation mixture described by AMES B.N. and Coll. (1975), "Mutation Research" 31, 347-364. Aliquot parts of 0.6 ml are distributed in glass test tubes each containing a certain dose of the substance under test. After two hours incubation at 37° C. with shaking, the β-galoactosidase and alkaline phosphatase activities were determined. […]

In data set [1] the test system is sfiA::operon lacZ recombinant. Conditions: FIG. 1 curve c; measured 2 hours after the start of the experiment; inhibitory concentrations. From the text:
FIGS. 2 and 3 contain the curves representing the variations of the logarithm of the abovesaid ratio, named below SOSIF (abbreviation of "SOS induction factor"), measurable in similar cultures, in the presence of different genotoxic substances, according to their respective concentrations in the culture media, in nanomoles per specimen tested.
(§1) The micro-organism employed in the tests whose description follows is a transformed E. coli strain, named PQ37, deposited in the National Collection of Culture Micro-Organisms (C.N.C.M.) of the Pasteur Institute of Paris, under no. I-205 on the date of Sept. 24, 1982. The genetic characteristics of this micro-organism are as follows: F^- thr leu his-4 pyrD thi galE galK or T lacΔUI69 srl 300::Tn10 rpoB rpsL uvrA rfa trp::Muc^+ sfiA::Mud(AP, lac)c-Ts. It is constitutive for the synthesis of the alkaline phosphatase (Pho^c). […]
A culture of the abovesaid micro-organism previously developed up to the exponential phase in LB culture medium (Bacto tryptone 10 g, Bacto yeast extract 5 g, NaC1 10 g, water Q.S.P. 1 1), also containing ampicillin, is diluted ten times either in fresh medium, or in the activation mixture described by AMES B.N. and Coll. […] After two hours incubation at 37° C. with shaking, the β-galoactosidase and alkaline phosphatase activities were determined. […]

Another data set concerns alkaline phosphatase. Kind of data set: alkaline phosphatase activity in E. coli PQ37 culture. Conditions: FIG. 1 curve b; beyond a certain concentration of genotoxic substance; 2 hours.
From the text: as §1
A culture of the abovesaid micro-organism previously developed up to the exponential phase in LB culture medium (Bacto tryptone 10 g, Bacto yeast extract 5 g, NaC1 10 g, water Q.S.P. 1 1), also containing ampicillin, is diluted ten times either in fresh medium, or in the activation mixture described by AMES B.N. and Coll. […] After two hours incubation at 37° C. with shaking, the β-galoactosidase and alkaline phosphatase activities were determined.
It is possible in particular to carry out the determination of the alkaline phosphatase under the following condition: 2.7 ml of T buffer (solution of 121 g of Tris (hydroxy-methyl)-aminomethane per liter, whose pH has been adjusted to 8.8 with HC1) were added to 0.3 ml of the cell culture. […] 5 minutes later, 1 ml of 2 N Tris is added to restore the color, which is measured in the spectrophotometer at 420 nm. […]

With `O=[N+]([O-])c1cc[n+]([O-])c2ccccc12` [4NQO, 4-nitroquinoline-1-oxide], the “β-galactosidase activity (inhibiting effect of the synthesis of the proteins)” value in the data set with β-galactosidase is “reduction”. For the same compound, in data set [1], the “SOSIF ratio at concentrations of the genotoxic substance which inhibit the synthesis of the proteins” value is “remains substantially constant”. For the same compound, the “alkaline phosphatase activity (inhibiting effect of the synthesis of the proteins)” value with alkaline phosphatase is “reduction”.
